Source: publication PMC8072159, “5-Bis-(2,6-difluoro-benzylidene) Cyclopentanone Acts as a Selective 11β-Hydroxysteroid Dehydrogenase one Inhibitor to Treat Diet-Induced Nonalcoholic Fatty Liver Disease in Mice” (Frontiers in Pharmacology, 2021)

Experiments:
rat 11β-HSD1 = tested on: rat 11β-HSD1; design: method as in Lin et al., 2013; conditions: ref Lin et al., 2013; cited from earlier work
human 11β-HSD1 = tested on: human 11β-HSD1; design: method as in Lin et al., 2013; conditions: ref Lin et al., 2013; cited from earlier work

Structure (SMILES)	melting point	IC50 (rat 11β-HSD1)	IC50 (human 11β-HSD1)
O=C1C(=Cc2ccccc2Br)CCC1=Cc1ccccc1Br [5-bis-(2-bromo-benzylidene) cyclopentanone]	–	148 nM	346 nM
O=C1/C(=C/c2ccc(Cl)cc2Cl)CC/C1=C\c1ccc(Cl)cc1Cl [WZS01, (2E,5E)-2,5-bis(2,4-dichlorobenzylidene) Cyclopentanone]	209.4 to 212 °C	–	–
Cc1ccc(/C=C2\CC/C(=C\c3ccc(C)cc3C)C2=O)c(C)c1 [WZS03, (2E,5E)-2,5-bis(2,4-dimethylbenzylidene) Cyclopentanone]	128.8 to 131.8 °C	–	–

The next lines start with results.

melting point	Structure (SMILES)	IC50 (rat 11β-HSD1)	IC50 (human 11β-HSD1)
204.6 to 206.8 °C	O=C1/C(=C/c2cccc(Cl)c2Cl)CC/C1=C\c1cccc(Cl)c1Cl [WZS04, (2E,5E)-2,5-bis(2,3-dichlorobenzylidene) Cyclopentanone]	–	–
195 to 197.8 °C	COc1cc(OC)c(/C=C2\CC/C(=C\c3c(OC)cc(OC)cc3OC)C2=O)c(OC)c1 [WZS05, (2E,5E)-2,5-bis(2,4,6-Trimethoxybenzylidene) Cyclopentanone]	–	–
208.1 to 209.8 °C	O=C1/C(=C/c2cc(F)ccc2F)CC/C1=C\c1cc(F)ccc1F [WZS07, (2E,5E)-2,5-bis(2,5-difluorobenzylidene) Cyclopentanone]	–	–
